{
  "source": "PubChem BioAssay AID328",
  "about": "(DTP/NCI, 2004)",
  "tested_on": "BDF1 mice, P388 leukemia ip, median survival T/C",
  "test": "NCI In Vivo Anticancer Drug Screen. Data for tumor model P388 Leukemia (intraperitoneal) in B6D2F1 (BDF1) mice",
  "conditions": "endpoint: median survival time, higher = longer survival",
  "method_in_brief": "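Vehicle-dosed animals serve as the reference; survival of compound-dosed, tumour-implanted mice is divided by it.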",
  "key": {"[1]": {"conditions": "dose: 6.25 mg/kg/injection, schedule: Q01DX009 (ip), vehicle: saline with Tween-80"}},
  "note": "Where “and” joins values, the source holds several entries; their conditions need not be identical. Equal entries are not always repeated. Inconclusive results and toxic doses are left out.",
  "data": [
    {"compound": "COc1cc(/C=C/[N+](=O)[O-])c(OC)cc1Br", "values": [
      {"measurement": "T/C", "setting": "dose: 3.12 mg/kg/injection, schedule: Q01DX009 (ip), vehicle: saline with Tween-80", "result": "99 % of control"},
      {"measurement": "T/C", "setting": "[1]", "result": "103 % of control"},
      {"measurement": "T/C", "setting": "dose: 12.5 mg/kg/injection, schedule: Q01DX009 (ip), vehicle: saline with Tween-80", "result": "105 % of control"},
      {"measurement": "T/C", "setting": "dose: 25.0 mg/kg/injection, schedule: Q01DX009 (ip), vehicle: saline with Tween-80", "result": "153 % of control"},
      {"measurement": "T/C", "setting": "dose: 50.0 mg/kg/injection, schedule: Q01DX009 (ip), vehicle: saline with Tween-80", "result": "94 % of control"}
    ]},
    {"compound": "CCN(CC)CCCCCNc1cc(OC)cc2c(C)ccnc12", "values": [
      {"measurement": "T/C", "setting": "dose: 50.0 mg/kg/injection, schedule: Q01DX009 (ip), vehicle: saline", "result": "115 % of control"},
      {"measurement": "T/C", "setting": "dose: 100.0 mg/kg/injection, schedule: Q01DX009 (ip), vehicle: saline", "result": "92 % of control"}
    ]},
    {"compound": "CSc1nc(NCc2ccc(Cl)cc2)c2[nH]c(C)nc2n1", "values": [
      {"measurement": "T/C", "setting": "dose: 0.78 mg/kg/injection, schedule: Q01DX009 (ip), vehicle: saline with Tween-80", "result": "122 % of control"},
      {"measurement": "T/C", "setting": "dose: 1.56 mg/kg/injection, schedule: Q01DX009 (ip), vehicle: saline with Tween-80", "result": "101 % of control"},
      {"measurement": "T/C", "setting": "dose: 3.13 mg/kg/injection, schedule: Q01DX009 (ip), vehicle: saline with Tween-80", "result": "97 % of control"},
      {"measurement": "T/C", "setting": "[1]", "result": "93 % of control"}
    ]},
    {"compound": "C=C(C)c1ccc(C)c(C)c1", "values": [
      {"measurement": "T/C", "setting": "dose: 100.0 mg/kg/injection, schedule: Q01DX009 (ip), vehicle: saline with Tween-80", "result": "106 % of control"},
      {"measurement": "T/C", "setting": "dose: 400.0 mg/kg/injection, schedule: Q01DX009 (ip), vehicle: saline with Tween-80", "result": "122 % of control"}
    ]},
    {"compound": "COc1ccc(OC)c(/C=C/c2ccnc3ccccc23)c1", "values": [
      {"measurement": "T/C", "setting": "dose: 50.0 mg/kg/injection, schedule: Q01DX010 (ip), vehicle: saline", "result": "95 % of control"},
      {"measurement": "T/C", "setting": "dose: 100.0 mg/kg/injection, schedule: Q01DX010 (ip), vehicle: saline", "result": "110 % of control"},
      {"measurement": "T/C", "setting": "dose: 200.0 mg/kg/injection, schedule: Q01DX010 (ip), vehicle: saline", "result": "150 % of control"},
      {"measurement": "T/C", "setting": "dose: 400.0 mg/kg/injection, schedule: Q01DX010 (ip), vehicle: saline", "result": "165 % of control"}
    ]},
    {"compound": "CCCCCCCCCCCCCCCCP(=O)(OCCOCCCCCC)OCCOCCCCCC", "values": [
      {"measurement": "T/C", "setting": "dose: 12.5 mg/kg/injection, schedule: Q01DX009 (ip), vehicle: alcohol", "result": "105 % of control"},
      {"measurement": "T/C", "setting": "dose: 12.5 mg/kg/injection, schedule: Q01DX009 (ip), vehicle: saline", "result": "87 % of control"},
      {"measurement": "T/C", "setting": "dose: 25.0 mg/kg/injection, schedule: Q01DX009 (ip), vehicle: alcohol", "result": "105 % of control"},
      {"measurement": "T/C", "setting": "dose: 82.5 mg/kg/injection, schedule: Q01DX001 (ip), vehicle: saline", "result": "100 % of control"},
      {"measurement": "T/C", "setting": "dose: 165.0 mg/kg/injection, schedule: Q01DX001 (ip), vehicle: saline", "result": "100 % of control"}
    ]},
    {"compound": "C[n+]1c(-c2ccccc2)c2ccccc2c2ccccc21", "values": [
      {"measurement": "T/C", "setting": "dose: 0.75 mg/kg/injection, schedule: Q01DX009 (ip), vehicle: water", "result": "102 % of control"},
      {"measurement": "T/C", "setting": "dose: 1.5 mg/kg/injection, schedule: Q01DX009 (ip), vehicle: water", "result": "105 % of control"},
      {"measurement": "T/C", "setting": "dose: 1.5 mg/kg/injection, schedule: Q04DX003 (ip), vehicle: water", "result": "111 % of control"},
      {"measurement": "T/C", "setting": "dose: 3.0 mg/kg/injection, schedule: Q01DX009 (ip), vehicle: water", "result": "105 % of control"},
      {"measurement": "T/C", "setting": "dose: 3.0 mg/kg/injection, schedule: Q04DX003 (ip), vehicle: water", "result": "111 % of control"},
      {"measurement": "T/C", "setting": "dose: 6.0 mg/kg/injection, schedule: Q04DX003 (ip), vehicle: water", "result": "93 % of control"}
    ]},
    {"compound": "COCC(O)Cn1ccnc1[N+](=O)[O-]", "note": "(stereo unspecified)", "values": [
      {"measurement": "T/C", "setting": "dose: 540.0 mg/kg/injection, schedule: Q01DX001 (ip), vehicle: saline", "result": "104 % of control"},
      {"measurement": "T/C", "setting": "dose: 600.0 mg/kg/injection, schedule: Q01DX001 (ip), vehicle: saline", "result": "92 % of control and 101 % of control"},
      {"measurement": "T/C", "setting": "dose: 900.0 mg/kg/injection, schedule: Q01DX001 (ip), vehicle: saline", "result": "107 % of control"},
      {"measurement": "T/C", "setting": "dose: 1000.0 mg/kg/injection, schedule: Q01DX001 (ip), vehicle: saline", "result": "99 % of control"},
      {"measurement": "T/C", "setting": "dose: 1500.0 mg/kg/injection, schedule: Q01DX001 (ip), vehicle: saline", "result": "104 % of control"}
    ]},
    {"compound": "O=[N+]([O-])c1ccc(Nc2ccc(Cl)c(Cl)c2)c2c1no[n+]2[O-]", "values": [
      {"measurement": "T/C", "setting": "dose: 17.5 mg/kg/injection, schedule: Q01DX009 (ip), vehicle: saline with Tween-80", "result": "88 % of control"},
      {"measurement": "T/C", "setting": "dose: 35.0 mg/kg/injection, schedule: Q01DX009 (ip), vehicle: saline with Tween-80", "result": "92 % of control"},
      {"measurement": "T/C", "setting": "dose: 70.0 mg/kg/injection, schedule: Q01DX009 (ip), vehicle: saline with Tween-80", "result": "88 % of control"}
    ]}
  ]
}
